{"source": "patent US20020051760A1", "about": "“Method for screening a substance having promoting activity on hair growth” (SUMITOMO ELECTRIC INDUSTRIES, Ltd., priority 2000, published 2002)", "key": {"[1]": {"tested_on": "Hacl-1 in the cultures (mouse beard)", "test": "Induction of Hacl-1 expression in cultured mouse beard", "type": "cell-based, mice", "settings": "50 μg/ml, cultivation for 5 days; the control showed only slight expression", "protocol": "(§1) A C57BL mouse (14 weeks old) was shaved on the back with clippers to confirm that the mouse had both skin areas in anagen and telogen as to the hair cycle based on colors of the skin. Each 200 mg of the skin areas in anagen and telogen was collected from the mouse and homogenized on ice for 2 minutes, and then suspended in a buffer (PBS). The supernatant was collected and subjected to SDS-polyacrylamide gel electrophoresis (SDS-PAGE). The respective hair follicles in telogen and anagen were distinguished by observing the tissue section under a microscope, and the criterion shown in FIG. 1 was applied for judgment.\nThe beard on the both sides of the mice used in Example 2 was collected and cultured by the method described in Development, 105, pp. 271-277, 1989. The beard from one side was used as a control, and that from the other side was treated with the aforementioned oligopeptide ssb7 (50 μg/ml). After cultivation for 5 days, Hacl-1 in the cultures was determined according to the method of Example 1."}, "[2]": {"tested_on": "Hacl-1 in the hair follicles", "test": "Induction of Hacl-1 expression and anagen in hair follicles of mouse back skin after subcutaneous injection", "type": "in vivo", "settings": "C57BL/6 mice in telogen, 0.8 mg/ml solution, 0.1 ml subcutaneously 5 times at intervals of 24 hours", "protocol": "as §1\nPromoting activity on hair growth of the aforementioned polypeptide H1 and oligopeptide ssb7 was evaluated. C57BL/6 mice are known to have sustained telogen for about 50 days from the 45-day after birth to around the 95-day, and the hair cycle of the animal is easily judged based on the skin color changes, i.e., from pink in telogen to gray or black in anagen. […] The polypeptide H1 solution (0.8 mg/ml) or the oligopeptide ssb7 solution (0.8 mg/ml) prepared above was subcutaneously injected 5 times in the amount of 0.1 ml at intervals of 24 hours, and Hacl-1 in the hair follicles was measured with time according to the method of Example 1."}}, "note": "Where no end group is shown, it is not given here."}
{"substance": "ssb7: S-S bridged oligopeptide obtained by crosslinking pep7 (Ser-Ile-Glu-Gln-Ser-Cys-Asp-Gln-Asp-Glu) with BMH (SIEQSCDQDE; not fully specified; printed as Ser-Ile-Glu-Gln-Ser-Cys-Asp-Gln-Asp-Glu; also: two chains crosslinked through Cys6 by BMH (bismaleimidohexane))", "values": [{"measurement": "expression of Hacl-1 in cultured beard", "setting": "[1]", "result": "expression of Hacl-1 was observed"}, {"measurement": "induction of anagen of the hair follicles", "setting": "[2]; 20-day, judged from Hacl-1 expression", "result": "induction of anagen"}, {"measurement": "Hacl-1 band in hair follicle samples (Western Blotting with antiserum against Hacl-1)", "setting": "[2]; samples at 20-day", "result": "clear band of Hacl-1 was observed"}]}
